Measurements: US8008452B2, “Phosphorylated Ndr kinase” (Novartis Forschungesstiftung, Zweigniederlassung Friedrich …, priority 2002, dated 2011)
Entries after “also recorded” stand apart in the source; their conditions may differ.

Experiments:
NDR2 = assay: Western blot of NDR2 variants with phosphorylation site specific antibodies; type: cell-based, human
From the text: This was described above for the corresponding mutants of NDR1.

HA-NDR2 = HA-NDR2 protein kinase activity after cell treatment with okadaic acid or solvent; type: cell-based, human; settings: for activation of NDR2 mutant by OA: cell treatment with OA; for basal kinase activity of NDR2 mutant: solvent alone, compared with HA-NDR2-WT
Procedure: All other procedures (including bacterial expression, kinase assays, immunodetection and mass spectrometry) were carried out essentially as described in the Methodology section above.
To further examine this NDR2 mutants were created in which either Ser-282 or Thr-442 were replaced by an alanine. Additionally an in vitro phosphorylation site mutant T75A essentially as described above, and a kinase dead mutant K119A was created for Ndr2. The protein kinase activity of each of these mutants was measured following cell treatment with okadaic acid (OA) or solvent alone. HA-NDR2-WT was potently stimulated (˜10-fold) by OA.

HA-NDR1 [1] = assay: Immunodetection of HA-NDR1 phosphorylated on Ser281 or Thr444 from COS-1 cells; type: cell-based, human; settings: for phosphorylation of HA-NDR1 on Ser281: immunoblot with anti-P-S281; for phosphorylation of HA-NDR1 on Thr444: immunoblot with anti-P-T444
Procedure: Either 1 microgram GST-NDR1 or HA-NDR1 immunoprecipitated from 100 microgram COS-1 detergent extracts as described above was separated on 10% SDS-PAGE and immunoblotted 2 h at RT or overnight at 4° C. with anti-Ser281P antisera (1:1000) in the presence of 50 microg/ml competing unphosphopeptide or anti-Thr444P purified antibody (1:500). Both antibodies were detected with horseradish peroxidase-conjugated donkey anti-rabbit Ig antibody (Amersham biosciences) and developed by ECL (chemiluminescence; Amersham Pharmacia Biotech).
To examine this possibility, extracts from transfected COS-1 cells were analyzed with the anti-Ser281P and anti-Thr444P antisera. Protein extracts (10 microg) from transfected COS-1 cells were immunoblotted with 12CA5 to verify similar expression levels of each HA-NDR1 construct. For the analysis of phosphorylation status, 12CA5-immunoprecipitated HA-NDR1 variants (out of 100 microg protein extract) were analysed by immunoblotting with phosphospecific antibodies directed against P-S281 or P-T444.
Protein extracts (10 microg) from mock- and HA-NDR1-transfected COS-1 cells were also immunoblotted with 12CA5 to verify equal expression levels of HA-NDR1 construct. For the analysis of phosphorylation status, 12CA5-immunoprecipitated HA-NDR1 (out of 100 microgram protein extract) was analysed by immunoblotting with phosphospecific antibodies directed against P-S281 or P-T444.

myc-hMOB1 = assay: Co-immunoprecipitation of HA-NDR and myc-hMOB1 from COS-1 cells; type: binding, human; settings: COS1 cells cotransfected with HA-NDR and myc-hMOB1
Procedure: HA-tagged hNDR and myc-tagged hMOB1 were cotransfected in COS1 cells, which were stimulated with okadaic acid or solvent alone. After cell lysis and extract preparation, HA-NDR was immunoprecipitated and co-immunoprecipitated myc-hMOB1 detected or Myc-hMOB1 was immunoprecipitated and co-immunoprecipitated HA-NDR detected.
HA-NDR, wt and mutants, and myc-hMOB1 were cotransfected into COS-1 cells and the cells were treated with OA prior to lysis. HA-NDR was immunoprecipitated and the coimmunoprecipitated myc-hMOB1 detected. […] Furthermore, the two important in vivo phosphorylation sites of NDR, serine-281 in the activation segment and the hydrophobic motif site threonine-444 in the C-terminal regulatory domain were tested, as well as the threonine 74 site in the N-terminal regulatory domain, for their role in NDR-MOB interaction.
HA-NDR N-terminal point mutants and myc-mob1 were co-transfected into COS1 cells which were treated with OA prior to lysis. HA-NDR mutants were immunoprecipitated and coimmunoprecipitated myc-hMOB1 detected.
In this Example, the effect of treatment of COS1 cells with BAPTA-AM on the NDR-MOB Interaction was determined. HA-NDR and myc-MOB1 was cotransfected into COS1 cells and the cells were treated with BAPTA-AM and OA or the solvents alone prior to lysis. HA-NDR was immunoprecipitated and co-immunoprecipitated myc-MOB1 detected. The kinase activity of the HA-NDR immunoprecipitates was measured in a peptide kinase assay.

HA-NDR1 [2] = assay: HA-NDR1 kinase assay on 12CA5 immunoprecipitates from transfected, treated COS-1 cells; type: cell-based, human
Procedure: In some experiments, the cells were treated for 60 min with 1 microM okadaic acid in 0.1% N,N-dimethylformamide (DMF) (Alexis Corp.), 50 microM BAPTA-AM (1,2-bis (o-aminophenoxy) ethane-N,N,N′,N′-tetraacetic acid tetra (acetoxy-methyl)ester) in 0.1% diimethylsulfoxide (DMSO; Sigma), or 20 microM thapsigargin in 0.1% DMSO (Alomone) 24 hours after transfection.
Transfected and treated COS-1 cells were washed once with ice-cold PBS, and harvested by rubber policeman in 1 ml ice-cold PBS containing 1 mM Na3VO4 and 20 mM beta-glycerophosphate before lysis in 500 microliters of IP buffer (20 mM Tris-HCl pH 8.0, 150 mM NaCl, 1% Nonidet P-40, 10% glycerol, 1 mM Na3VO4, 20 mM beta-glycerolphosphate, 1 microM microcystin-LR, 50 mM NaF, 0.5 mM PMSF, 4 microM leupeptin, 1 mM benzamidine, and 1 tablet/10 ml IP of Complete protease inhibitors (Roche)). Lysates were centrifuged at 20 000 g for 20 min and triplicate aliquots (200 microg) of supernatant were precleared with protein A-Sepharose (Amersham Pharmacia Biotech) for 60 min and mixed subsequently for 3 h at 4° C. with 12CA5 antibody prebound to protein A-Sepharose (˜1 microg antibody bound to 2 microl beads). The beads were then washed twice with IP buffer, once for 10 min with IP buffer containing 1 M NaCl, once again for 10 min with IP buffer, and finally twice with 20 mM Tris-HCl pH 7.5 containing 4 microM leupeptin and 1 mM benzamidine. Thereafter, beads were resuspended in 30 microliters buffer containing 20 mM Tris-HCl pH 7.5, 10 mM MgCl2, 1 mM DTT, 100 microM [gamma-^32P]ATP (˜0.1 microCi/microliter), 1 microM cAMP-dependent protein kinase inhibitor peptide PKI (Bachem), 4 microM leupeptin, 1 mM benzamidine, 1 microM microcystin-LR, and 1 mM NDR1 substrate peptide ([…]). After 60 min incubation at 30° C., 15 microliters of supernatant were removed, and phosphate incorporation into the substrate peptide determined as described for GST-NDR1 above.
COS-1 cells expressing either wild type HA-NDR1 or the indicated mutants were treated for 1 h with 1 microM okadaic acid or with solvent alone. HA-tagged NDR kinase variants were then immunoprecipitated (out of 100 microgram of detergent extracts) with 12CA5 monoclonal antibody and assayed for kinase activity by a peptide kinase assay as described above.
Mock-transfected or HA-NDR1-expressing COS-1 cells were treated for 1 h with […], 50 microM BAPTA-AM, and […] or with solvent (0.1% DMF or 0.1% DMSO) alone. 12CA5 immunoprecipitates (out of 100 microgram protein extract) were then assayed using the peptide kinase assay for NDR1 kinase activity.
To test whether hMOB1 plays a role in NDR activation, myc-hMOB1 or the empty vector was cotransfected with HA-NDR1 in COS1 cells and treated with OA. 12CA5 immunoprecipitates were then assayed using the peptide kinase assay for HA-NDR kinase activity. […] GST-MOB and GST respectively was added to immunoprecipitated HA-NDR and kinase reaction were performed. The reactions were resolved on a 10% SDS PAGE and the radioactivity visualised by using a phosphoimager.

HA-NDR1 [3] = assay: as above; type: cell-based, human; set-up: dose or concentration left out as unconfirmed

With “NDR2 wt: human NDR2 wild type (SEQ ID NO:3), HA-tagged” the “increase of Ser282 phosphorylation after OA treatment” value (NDR2) was “increased after OA treatment”, the “phosphorylation of NDR2 on Ser282” value (NDR2) was “becomes phosphorylated on Ser282” and the “phosphorylation of NDR2 on T442 upon OA treatment” value (NDR2) was “becomes phosphorylated upon OA treatment”.

“T442A: NDR2 mutant, Thr-442 replaced by alanine” was tested, and the “activation of NDR2 mutant by OA” value (HA-NDR2) was “still activated”, the “basal kinase activity of NDR2 mutant” value (HA-NDR2) was “markedly reduced basal activity” and the “increase of Ser282 phosphorylation after OA treatment” value (NDR2) was “increased after OA treatment”. For the same compound, the “phosphorylation of NDR2 on Ser282” value (NDR2) was “becomes phosphorylated on Ser282”.

In the case of `CC(=O)OCOC(=O)CN(CC(=O)OCOC(C)=O)c1ccccc1OCCOc1ccccc1N(CC(=O)OCOC(C)=O)CC(=O)OCOC(C)=O` [BAPTA-AM, 1,2-bis (o-aminophenoxy) ethane-N,N,N′,N′-tetraacetic acid tetra (acetoxy-methyl)ester], the “phosphorylation of HA-NDR1 on Ser281” value (HA-NDR1 [1]) is reported as “declined almost to the baseline”, the “phosphorylation of HA-NDR1 on Thr444” value (HA-NDR1 [1]) is reported as “declined almost to the baseline” and the “effect of cell treatment on NDR-MOB interaction” value (myc-hMOB1) is reported as “reduction of the NDR-MOB interaction”. The “Spec. Activity (NDR1 kinase activity)” value (HA-NDR1 [2]) was 0.2676 and the “effect on okadaic acid-stimulated NDR1 activity” value (HA-NDR1 [3]) was “dramatically reduced; also recorded: reduces OA induced NDR kinase activation”.

In the case of “S282A: NDR2 mutant, Ser-282 replaced by alanine”, the “activation of NDR2 mutant by OA” value (HA-NDR2) is reported as “still activated”, the “basal kinase activity of NDR2 mutant” value (HA-NDR2) is reported as “markedly reduced basal activity” and the “phosphorylation of NDR2 on T442 upon OA treatment” value (NDR2) is reported as “becomes phosphorylated upon OA treatment”.

In the case of “T75A: NDR2 in vitro phosphorylation site mutant T75A”, the “activation of NDR2 mutant by OA” value (HA-NDR2) is reported as “still activated”, the “basal kinase activity of NDR2 mutant” value (HA-NDR2) is reported as “markedly reduced basal activity” and the “phosphorylation of NDR2 on Ser282” value (NDR2) is reported as “becomes phosphorylated on Ser282”. For the same compound, the “phosphorylation of NDR2 on T442 upon OA treatment” value (NDR2) was “becomes phosphorylated upon OA treatment”.

With `C=C1[C@@H](O)[C@@H]2O[C@]3(CC[C@H](/C=C/[C@@H](C)[C@@H]4CC(C)=C[C@@]5(O[C@H](C[C@@](C)(O)C(=O)O)CC[C@H]5O)O4)O3)CC[C@H]2O[C@@H]1[C@@H](O)C[C@H](C)[C@H]1O[C@@]2(CCCCO2)CC[C@H]1C` [okadaic acid, reference compound] the “phosphorylation of HA-NDR1 on Ser281” value (HA-NDR1 [1]) was “further enhanced”, the “phosphorylation of HA-NDR1 on Thr444” value (HA-NDR1 [1]) was “only became phosphorylated after okadaic acid treatment” and the “effect of cell treatment on NDR-MOB interaction” value (myc-hMOB1) was “dependent on stimulation of the cells with OA”. The “Spec. Activity (NDR1 kinase activity)” value (HA-NDR1 [2]) was 10.142 and the “stimulation of HA-NDR2-WT kinase activity” value (HA-NDR2; cell treatment with OA versus solvent alone) was ~10 fold.

K119A: NDR2 kinase dead mutant K119A was tested, and the “activation of NDR2 mutant by OA” value (HA-NDR2) was “didn't show any activation by OA”, the “basal kinase activity of NDR2 mutant” value (HA-NDR2) was “nearly undetectable levels” and the “phosphorylation of NDR2 on Ser282” value (NDR2) was “not phosphorylated on S282”. The “phosphorylation of NDR2 on T442 upon OA treatment” value (NDR2) was “becomes phosphorylated upon OA treatment”.

For `C/C=C(/C)C(=O)O[C@H]1C(C)=C2[C@H]([C@@H]1OC(=O)CCCCCCC)[C@@](C)(OC(C)=O)C[C@H](OC(=O)CCC)[C@@]1(O)[C@H]2OC(=O)[C@@]1(C)O` [thapsigargin], the “phosphorylation of HA-NDR1 on Ser281” value (HA-NDR1 [1]) was “rescued”, the “phosphorylation of HA-NDR1 on Thr444” value (HA-NDR1 [1]) was “rescued” and the “effect on okadaic acid-stimulated NDR1 activity” value (HA-NDR1 [3]) was “rescued”.
